“Also recorded” adds a separate entry of the source. Read-outs that look alike come from different tables or passages of the source. Marks after values point to notes of the source that are not given here.
What was measured:
[1] = biological target: T1, OR8K3 (Homo sapiens, UniProt Q8NH51); assay: cell-based; format: cell-based
T1 construct: expressed in transfected cells; host or cells: HEK293T cells stably expressing human RTP1S (V227I) and RTP2 (L220R)
T1 sequence (Q8NH51 1-312): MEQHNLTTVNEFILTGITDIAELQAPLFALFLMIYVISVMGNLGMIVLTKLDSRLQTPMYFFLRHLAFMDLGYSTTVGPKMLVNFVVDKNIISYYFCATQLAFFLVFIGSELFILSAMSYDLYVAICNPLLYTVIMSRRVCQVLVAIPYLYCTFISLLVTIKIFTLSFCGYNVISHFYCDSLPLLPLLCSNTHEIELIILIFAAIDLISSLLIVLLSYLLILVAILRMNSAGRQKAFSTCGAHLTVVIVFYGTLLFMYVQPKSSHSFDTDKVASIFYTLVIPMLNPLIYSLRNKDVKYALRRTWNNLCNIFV
Description: (§1) To create an expression plasmid, an OR coding sequence fused at the end of TM7 to the desired C-terminus sequence was synthesized by a DNA synthesis service provider (BioCat GmbH, Germany) and inserted into pcDNA3.1(+) (Invitrogen, MA, USA) downstream of the CMV promoter sequence (SEQ ID NO: 82) using BamHI and Notl restriction sites. All the synthetic OR nucleotide sequences described below in Examples 1-15 further contained at their N-terminus a nucleotide sequence encoding a signal peptide (mmLucy-FLAG-rho, SeQ ID NOs: 80, 81) and at the C-terminus the bgh terminator sequence (SEQ ID NO: 83). All the OR expression plasmids also contain a Kozak sequence (GCCACC) between the BamHI restriction site and the start codon of the signal peptide. These plasmids thus contain a constitutively expressed OR gene.
(§2) Thus, using the improved sensitivity of the assay provided by the modified variant, activation of OR8K3 by a broader set of mint-smelling molecules can be detected.
(§3) Knowing the importance of the C-terminal sequence for proper expression as observed in the previous examples, an obvious way to improve expression might be just to provide a hybrid receptor whereby the C-terminal domain in a non-functional or poorly functional receptor is replaced by the C-terminal domain of a functional receptor. […] Thus the C-terminal sequence of OR8K3 was replaced with the C-terminal sequence of the ambrettolide-receptor OR1N2 or the musk receptor OR5AN1. […] Thus the improvement achieved with the modified C-terminal sequences of this disclosure cannot be achieved by simply generating chimeric receptors combining a functional C-terminal domain of a functional receptor with a poorly expressed receptor.

[2] = biological target: T2, OR8K3 (Homo sapiens, UniProt Q8NH51, D295E/Y298D); assay: cell-based; format: cell-based
T2 construct: expressed in transfected cells; host or cells: HEK293T cells stably expressing human RTP1S (V227I) and RTP2 (L220R)
T2 sequence (Q8NH51 with tags, fused parts or gaps D295E/Y298D): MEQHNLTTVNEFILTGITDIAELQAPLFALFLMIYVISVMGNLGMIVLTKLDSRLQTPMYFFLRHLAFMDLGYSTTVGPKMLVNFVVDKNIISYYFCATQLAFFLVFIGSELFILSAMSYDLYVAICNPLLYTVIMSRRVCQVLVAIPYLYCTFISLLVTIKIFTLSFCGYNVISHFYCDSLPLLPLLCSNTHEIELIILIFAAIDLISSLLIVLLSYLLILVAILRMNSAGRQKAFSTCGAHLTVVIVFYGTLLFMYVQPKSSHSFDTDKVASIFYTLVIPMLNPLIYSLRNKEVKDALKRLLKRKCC
Description: as §1, §2, §3

[3] = biological target: T3, OR10H5 (Homo sapiens, UniProt Q8NGA6); assay: Luciferase dose-response, wild-type vs changed C-terminus (SEQ ID NO: 86); format: cell-based
T3 construct: expressed in transfected cells; host or cells: HEK293T cells stably expressing human RTP1S (V227I) and RTP2 (L220R)
Description: as §1
T3 sequence (Q8NGA6 with tags, fused parts or gaps): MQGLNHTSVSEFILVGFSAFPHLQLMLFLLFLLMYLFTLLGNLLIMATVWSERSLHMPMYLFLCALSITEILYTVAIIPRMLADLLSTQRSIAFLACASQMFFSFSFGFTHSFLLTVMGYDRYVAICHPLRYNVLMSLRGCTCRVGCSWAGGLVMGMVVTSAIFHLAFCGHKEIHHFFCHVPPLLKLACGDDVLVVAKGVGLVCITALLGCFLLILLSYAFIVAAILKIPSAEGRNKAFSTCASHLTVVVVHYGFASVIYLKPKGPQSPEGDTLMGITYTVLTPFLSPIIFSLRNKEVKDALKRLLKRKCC

[4] = biological target: T4, OR10H5 (Homo sapiens, UniProt Q8NGA6); assay: as above; format: cell-based; conditions: wild-type
T4 construct: expressed in transfected cells; host or cells: HEK293T cells stably expressing human RTP1S (V227I) and RTP2 (L220R)
Description: as §1
T4 sequence (Q8NGA6 whole entry): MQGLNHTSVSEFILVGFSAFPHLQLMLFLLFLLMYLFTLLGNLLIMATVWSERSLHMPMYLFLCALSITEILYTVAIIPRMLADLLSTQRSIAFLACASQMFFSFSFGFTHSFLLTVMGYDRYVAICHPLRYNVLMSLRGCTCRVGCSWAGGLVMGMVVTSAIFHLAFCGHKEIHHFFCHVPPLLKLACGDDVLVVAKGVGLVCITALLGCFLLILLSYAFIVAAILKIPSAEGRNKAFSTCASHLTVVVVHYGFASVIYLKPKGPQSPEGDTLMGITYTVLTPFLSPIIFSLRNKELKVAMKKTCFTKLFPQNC

[5] = test system: OR10H5; assay: as above; format: cell-based, human
Description: as §1

[6] = biological target: T5, OR14J1 (Homo sapiens, UniProt Q9UGF5); assay: Activation of modified OR14J1 (SEQ ID NO: 221), library hit and dose-response; format: cell-based; conditions: SEQ ID 221
T5 construct: expressed in transfected cells; host or cells: HEK293T stably expressing human RTP1S(V227I) and RTP2(L220R) (general method)
Description: Parallel transfection experiments were conducted with all these plasmids (n = 408) and cells expressing the different OR were stimulated with one given ligand at a time, tested at the maximal, clearly non-cytotoxic concentration. In total 26 different ligands were tested on the full library of class II receptors.
Table 16. Ligands tested on the full library of OR and cognate receptors identified for these ligands

[7] = test system: OR5A2; assay: Luciferase dose-response, wild-type vs changed C-terminus (SEQ ID NO: 86); format: cell-based, human
Description: as §1

[8] = biological target: T6, OR5A2 (Homo sapiens, UniProt Q8NGI9); assay: as above; format: cell-based
T6 construct: expressed in transfected cells; host or cells: HEK293T cells with stably integrated human RTP1S (V227I) and RTP2 (L220R)
T6 sequence (Q8NGI9 with tags, fused parts or gaps): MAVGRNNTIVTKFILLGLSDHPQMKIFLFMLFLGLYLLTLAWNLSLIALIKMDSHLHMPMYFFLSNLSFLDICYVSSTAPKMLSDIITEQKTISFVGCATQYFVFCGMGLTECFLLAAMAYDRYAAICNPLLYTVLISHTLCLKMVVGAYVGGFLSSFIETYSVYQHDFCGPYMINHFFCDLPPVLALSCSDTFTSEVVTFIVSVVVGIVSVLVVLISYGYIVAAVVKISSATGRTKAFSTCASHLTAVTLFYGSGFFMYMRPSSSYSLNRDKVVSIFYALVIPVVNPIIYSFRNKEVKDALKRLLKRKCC
Description: as §1

[9] = biological target: T7, OR5A2 (Homo sapiens, UniProt Q8NGI9); assay: as above; format: cell-based; remark: listed apart in the source
T7 construct: expressed in transfected cells; host or cells: HEK293T cells with stably integrated human RTP1S (V227I) and RTP2 (L220R)
T7 sequence (Q8NGI9 1-324): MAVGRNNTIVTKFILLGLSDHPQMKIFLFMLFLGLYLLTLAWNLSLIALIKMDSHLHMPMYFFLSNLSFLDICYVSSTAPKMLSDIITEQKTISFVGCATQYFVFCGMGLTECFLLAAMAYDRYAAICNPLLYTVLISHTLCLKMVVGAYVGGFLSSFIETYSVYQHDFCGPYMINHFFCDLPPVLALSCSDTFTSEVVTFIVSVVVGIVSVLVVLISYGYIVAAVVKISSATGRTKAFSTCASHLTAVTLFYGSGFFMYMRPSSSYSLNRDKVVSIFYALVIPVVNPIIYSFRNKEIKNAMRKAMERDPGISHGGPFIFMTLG
Description: as §1

[10] = test system: OR52E8; assay: cell-based; format: cell-based, human
Description: as §1

[11] = biological target: T8, OR52E8 (Homo sapiens, UniProt Q6IFG1); assay: cell-based; format: cell-based; conditions: read-out: Potency EC50
T8 construct: expressed in transfected cells; host or cells: HEK293T stably expressing human RTP1S(V227I) and RTP2(L220R)
Description: as §1

[12] = biological target: T9, OR10J5 (Homo sapiens, UniProt Q8NHC4); assay: OR10J5 (SEQ ID NO: 86) dose-response of isomers, EC20% relative to positive control; format: cell-based; conditions: 20 % of positive control (100µM Mahonial); OR10J5 with SEQ ID NO: 86
T9 construct: expressed in transfected cells; host or cells: HEK293T cells stably expressing human RTP1S (V227I) and RTP2 (L220R)
T9 sequence (Q8NHC4 with tags, fused parts or gaps): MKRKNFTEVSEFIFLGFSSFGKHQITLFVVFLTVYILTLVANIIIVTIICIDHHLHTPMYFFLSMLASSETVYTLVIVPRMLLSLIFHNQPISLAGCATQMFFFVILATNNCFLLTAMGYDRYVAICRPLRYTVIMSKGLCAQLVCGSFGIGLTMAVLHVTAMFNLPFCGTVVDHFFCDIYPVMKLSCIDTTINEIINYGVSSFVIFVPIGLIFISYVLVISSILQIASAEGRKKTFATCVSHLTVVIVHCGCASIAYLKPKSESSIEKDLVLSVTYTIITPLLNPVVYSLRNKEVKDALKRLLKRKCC
Description: Once a strong ligand is known for a given OR and the concentration of that ligand for maximal OR activation, this ligand (tested at its maximal inducing concentration) can be introduced as a positive control into the experiment, and fold-luciferase can be reported as % activation of the positive control according to the following formula: % activation = (Fold luciferase activation test compound−1)/(Fold luciferase activation positive control−1) × 100 [formula]
Activation of OR10J5 with the C-terminal domain of SEQ ID NO: 86 by (S,E)-10-hydroxy-4,8-dimethyldec-4-enal or (R,E)-10-hydroxy-4,8-dimethyldec-4-enal was measured in a dose-response analysis.
Potency of the two tested OR10J5 ligands is expressed as the EC20% value, which is the concentration that leads to a 20 % increase of the luciferase activity relative to the positive control (100µM, Mahonial; (4E)-9-hydroxy-5,9-dimethyl-4-Decenal). […] Because of the difference in EC20%, a much lower concentration of the (S,E)-isomer is needed to activate the receptor compared to the concentration needed of the (R,E)-isomer. […] This example further illustrates the usefulness of the improved assay to determine the most odor-active isomers.

[13] = biological target: T10, OR5A1 (Homo sapiens, UniProt Q8NGJ0, I300V); assay: Luciferase dose-response, wild-type vs changed C-terminus (SEQ ID NO: 86); format: cell-based
T10 construct: expressed in transfected cells; host or cells: HEK293T cells stably expressing human RTP1S (V227I) and RTP2 (L220R)

[14] = biological target: T11, OR5A1 (Homo sapiens, UniProt Q8NGJ0); assay: as above; format: cell-based
T11 construct: expressed in transfected cells; host or cells: HEK293T cells stably expressing human RTP1S (V227I) and RTP2 (L220R)

[15] = test system: OR5A1; assay: as above; format: cell-based, human
[16] = test system: OR8K3; assay: cell-based; format: cell-based, human
Description: as §1, §2, §3

[17] = biological target: T12, OR5AN1 (Homo sapiens, UniProt Q8NGI8); assay: Chimeric OR5AN1 with C-terminal sequence of OR1N2 (luciferase); format: cell-based
T12 construct: expressed in transfected cells; host or cells: HEK293T stably expressing human RTP1S(V227I) and RTP2(L220R)
Description: Similarly, the C-terminal sequence of OR5AN1 was replaced with the C-terminal sequence of the ambrettolide receptor OR1 N2.

[18] = changed C-term SEQ ID NO: 86, read-out: Potency EC50

T5 sequence (Q9UGF5 with tags, fused parts or gaps): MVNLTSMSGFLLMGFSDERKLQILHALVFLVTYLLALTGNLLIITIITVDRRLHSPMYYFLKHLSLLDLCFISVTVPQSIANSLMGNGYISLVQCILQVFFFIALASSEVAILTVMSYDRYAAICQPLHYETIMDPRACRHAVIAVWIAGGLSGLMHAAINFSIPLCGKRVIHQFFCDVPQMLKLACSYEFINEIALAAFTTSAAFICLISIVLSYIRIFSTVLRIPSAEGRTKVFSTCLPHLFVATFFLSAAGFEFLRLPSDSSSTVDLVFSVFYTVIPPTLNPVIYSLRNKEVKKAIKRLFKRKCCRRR
T10 sequence (Q8NGJ0 with tags, fused parts or gaps I300V): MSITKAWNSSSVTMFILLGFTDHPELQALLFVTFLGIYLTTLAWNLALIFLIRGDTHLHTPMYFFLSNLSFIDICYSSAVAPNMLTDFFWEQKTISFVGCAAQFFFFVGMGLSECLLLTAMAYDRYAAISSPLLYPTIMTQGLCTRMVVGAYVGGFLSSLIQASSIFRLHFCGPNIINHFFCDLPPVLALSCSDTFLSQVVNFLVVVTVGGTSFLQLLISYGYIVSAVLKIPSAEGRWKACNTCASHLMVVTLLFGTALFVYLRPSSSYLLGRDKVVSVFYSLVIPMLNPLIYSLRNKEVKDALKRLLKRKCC
T12 sequence (Q8NGI8 with tags, fused parts or gaps limits assumed): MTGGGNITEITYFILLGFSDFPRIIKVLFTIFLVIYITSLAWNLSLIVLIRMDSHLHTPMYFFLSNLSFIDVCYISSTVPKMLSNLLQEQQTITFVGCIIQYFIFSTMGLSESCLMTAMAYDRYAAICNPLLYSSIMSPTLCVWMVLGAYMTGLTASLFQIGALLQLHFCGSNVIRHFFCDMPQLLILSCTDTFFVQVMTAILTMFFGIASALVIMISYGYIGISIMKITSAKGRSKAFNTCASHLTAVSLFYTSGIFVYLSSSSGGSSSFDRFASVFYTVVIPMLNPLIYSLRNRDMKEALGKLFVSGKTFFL

CC(C)[C@@H]1CC[C@@H](C)CC1=O [menthone]
Detection threshold; concentration for 2-fold induction [1]: > 316 µM | activation of modified receptor variant ([2]; OR8K3 with SEQ ID NO: 86): also activating the receptor, although with a lower potency

Cc1ccc2c(c1)OCC(=O)CO2 [Calone]
EC50 [3, 18]: 60 µM | Detection threshold; concentration for 2-fold induction ([3]; changed C-term. SEQ ID NO: 86): 24.3 µM | Detection threshold; concentration for 2-fold induction [4]: 60.1 µM | EC50 ([4]; read-out: Potency EC50): 41 µM | Comments on efficacy [5]: 3-fold lower maximal induction for wild-type | Fold-improvement threshold [5]: 2.5 | Fold-improvement potency ([5]; higher EC50 due to much higher efficacy of optimized C-terminus): 0.7 *

C[C@H]1CCC2(O)C(C)(C)C3CCC2(C)C1C3 (stereo partly drawn) [Patchoulol, (4S)-4,8a,9,9-tetramethyloctahydro-1,6-methanonaphthalen-1(2H)-ol]
activation of OR14J1 [6]: activate OR14J1; also recorded: strong induction

CC1COCc2cc3c(cc21)C(C)(C)C(C)C3(C)C (stereo not drawn) [Galaxolide]
Comments on efficacy [7]: No induction wild-type | Fold-improvement potency [7]: >300 | Fold-improvement threshold [7]: >20000 | concentration at which activation occurs ([8]; OR5A2 with SEQ ID NO: 86): < 0.01 µM | EC50 ([8]; Potency EC50, changed C-term SEQ ID NO: 86): 0.1 µM | Detection threshold; concentration for 2-fold induction ([8]; changed C-term. SEQ ID NO: 86): 0.0016 µM | EC50 ([9]; Potency EC50, wild-type): > 31 µM | Detection threshold; concentration for 2-fold induction ([9]; wild-type): n.i. (>> 31) µM | activation of the wild-type receptor ([9]; wild-type OR5A2): No activation

CC(C)(O)[Si](C1CC1)(C1CC1)C1CC1 [2-(tricyclopropylsilyl)propan-2-ol]
activation of OR14J1 [6]: activate OR14J1

CCCC(C)(O)CC(=O)O (stereo not drawn) [3-Methyl-3-Hydroxy-Hexanoic acid]
Comments on efficacy [10]: No induction wild-type | Fold-improvement potency [10]: >>5 | Fold-improvement threshold [10]: >>5 | EC50 ([11]; changed C-term SEQ ID NO: 86): 69 µM | EC50 ([11]; wild-type): > 316 µM

C/C(=C\CC[C@H](C)CCO)CCC=O [(S,E)-10-hydroxy-4,8-dimethyldec-4-enal]
EC20% [12]: 10.1 µM

CC(=O)/C=C/C1=C(C)CCCC1(C)C [Beta-ionone]
EC50 [13]: 3.1 µM | Detection threshold; concentration for 2-fold induction ([13]; changed C-term. SEQ ID NO: 86): 3.2 µM | EC50 [14]: 5.5 µM | Detection threshold; concentration for 2-fold induction ([14]; wild-type): 19.1 µM | Comments on efficacy [15]: 4-fold lower maximal induction for wild-type | Fold-improvement potency [15]: 1.8 | Fold-improvement threshold [15]: 5.9

CC1CCC(C(C)C)C(O)C1 (stereo not drawn) [Menthol]
Detection threshold; concentration for 2-fold induction [1]: 160 µM | EC50 ([1]; wild-type, read-out: Potency EC50): 236 µM | Comments on efficacy [16]: 3-fold lower maximal induction for wild-type | Fold-improvement potency [16]: 2 | functional response ([16]; OR8K3 with C-terminal sequence of OR1N2 or OR5AN1): did not show any functional response | Detection threshold; concentration for 2-fold induction [2]: 11 µM | EC50 [2, 18]: 115 µM

CC(=O)c1c(C)c([N+](=O)[O-])c(C(C)(C)C)c([N+](=O)[O-])c1C [Musk ketone]
functional response [17]: not showing any functional response

C/C(=C\CC[C@@H](C)CCO)CCC=O [(R,E)-10-hydroxy-4,8-dimethyldec-4-enal]
EC20% [12]: 24.4 µM

Source: patent publication EP4664463A1, “COMPUTER-IMPLEMENTED METHOD FOR OLFACTORY PROPERTY PREDICTION” (Givaudan SA, priority 2024, dated 2025)
